Results published in the NIST ThermoML archive (doi:10.1021/je500498m).
Several values for one entry are separate records, joined by “and”; a condition that tells them apart may be missing. Equal values may be shown once.

Legend:
[1] = for speed of sound: 100 kPa, Sing-around technique in a fixed-path interferometer; for speed of sound / viscosity / mass density: Liquid; for viscosity / mass density: 101 kPa; for viscosity: Falling or rolling sphere viscometry; for mass density: Vibrating tube method; for surface tension liquid-gas: 294.4 K, Pendant drop shape
[2] = xn = mol fraction of the nth substance listed; settings: x1 = 1; for speed of sound: 100 kPa, Sing-around technique in a fixed-path interferometer; for speed of sound / viscosity / mass density: Liquid; for viscosity / mass density: 101 kPa; for viscosity: Falling or rolling sphere viscometry; for mass density: Vibrating tube method; for surface tension liquid-gas: 294.4 K, Pendant drop shape

CCc1ccccc1 [ethylbenzene]
[1]
Settings | mass density [kg/m3] | speed of sound [m/s] | viscosity [mPa·s]
293.15 K | 866.95 | 1339.7 | 0.67
303.15 K | 858.15 | 1298.1 | 0.59
313.15 K | 849.29 | 1256.9 | –
323.15 K | 840.38 | 1216.4 | 0.48
333.15 K | 831.4 | 1176.4 | 0.44
343.15 K | 822.3 | – | 0.4
353.15 K | 813.1 | – | 0.36
363.15 K | 803.7 | – | 0.33
373.15 K | 794.2 | – | 0.31

Settings | surface tension liquid-gas [mN/m]
[1] | 29.2

CCc1ccccc1 [ethylbenzene] + CCCCCCCCCCCCCCCC
[2]
Settings | mass density [kg/m3] | speed of sound [m/s] | viscosity [mPa·s]
293.15 K | 866.95 | 1339.7 | 0.67
303.15 K | 858.15 | 1298.1 | 0.59
313.15 K | 849.29 | 1256.9 | –
323.15 K | 840.38 | 1216.4 | 0.48
333.15 K | 831.4 | 1176.4 | 0.44
343.15 K | 822.3 | – | 0.4
353.15 K | 813.1 | – | 0.36
363.15 K | 803.7 | – | 0.33
373.15 K | 794.2 | – | 0.31

Settings | surface tension liquid-gas [mN/m]
[2] | 29.2

CCCCCCCCCCCCCCCC [hexadecane]
[1]
Settings | mass density [kg/m3] | speed of sound [m/s] | viscosity
293.15 K | 773.49 | 1357.3 | 3.44 mPa·s
303.15 K | 766.55 | 1320 | 2.72 mPa·s
313.15 K | 759.63 | 1283.3 | –
323.15 K | 752.71 | 1247.3 | 1.82 mPa·s
333.15 K | 745.79 | 1212 | 1.54 mPa·s and 1.53 mPa·s
343.15 K | 738.9 | – | 1.31 mPa·s
353.15 K | 731.8 | – | 1.13 mPa·s
363.15 K | 724.7 | – | 0.99 mPa·s
373.15 K | 717.5 | – | 0.87 mPa·s

Settings | surface tension liquid-gas [mN/m]
[1] | 27.3

Cc1ccccc1 [toluene]
[1]
Settings | mass density [kg/m3] | speed of sound [m/s] | viscosity [mPa·s]
293.15 K | 866.84 | 1326.8 | 0.59
303.15 K | 857.53 | 1283.7 | 0.52
313.15 K | 848.14 | 1241.1 | –
323.15 K | 838.7 | 1199 | 0.42
333.15 K | 829.16 | 1157.6 | 0.38
343.15 K | 819.6 | – | 0.35
353.15 K | 809.7 | – | 0.32
363.15 K | 799.7 | – | 0.27

Settings | surface tension liquid-gas [mN/m]
[1] | 28.4

Cc1ccccc1 [toluene] + CCCCCCCCCCCCCCCC
[2]
Settings | mass density [kg/m3] | speed of sound [m/s] | viscosity [mPa·s]
293.15 K | 866.84 | 1326.8 | 0.59
303.15 K | 857.53 | 1283.7 | 0.52
313.15 K | 848.14 | 1241.1 | –
323.15 K | 838.7 | 1199 | 0.42
333.15 K | 829.16 | 1157.6 | 0.38
343.15 K | 819.6 | – | 0.35
353.15 K | 809.7 | – | 0.32
363.15 K | 799.7 | – | 0.27

Settings | surface tension liquid-gas [mN/m]
[2] | 28.4
